Measured values published in the OligoGym collection.
After the bases stand the sugars from the 5' end (letter, count) and the backbone: PS all phosphorothioate, else s phosphorothioate and o phosphodiester by linkage. Methylation of C is not given here. e = 2'-O-(2-methoxyethyl) (MOE); k = constrained ethyl (cEt); d = 2'-deoxy (DNA); m = 2'-O-methyl

Target: HSD17B13
Details: ASO, HepaRG

Row | Sequence | target mRNA inhibition (1 µM) [%] | also measured
1 | CTTCAGAGTTATACAG (sugars k3 d10 k3, PS) | 35 | –
2 | CATTAGCAAGCTAAGA (sugars k3 d10 k3, PS) | 0 | –
3 | CCAAACATGGATGTTA (sugars k3 d10 k3, PS) | 43 | –
4 | GGAGATATAACATTAC (sugars k3 d10 k3, PS) | 70 | target mRNA inhibition (0.02 µM): 10%; target mRNA inhibition (0.078 µM): 10%; target mRNA inhibition (0.313 µM): 42%; target mRNA inhibition (1.25 µM): 68%; target mRNA inhibition (5 µM): 88%
5 | GTACAAATTTATGCCA (sugars k3 d10 k3, PS) | 45 | –
6 | ATCCTACATGTAAGGT (sugars k3 d10 k3, PS) | 24 | –
7 | ATAATACATTAGCAAG (sugars k3 d10 k3, PS) | 7 | –
8 | TTGTATTTCGCTACTG (sugars k3 d10 k3, PS) | 58 | –
9 | ACAGAGTTATTGTAGG (sugars k3 d10 k3, PS) | 58 | –
10 | TGATATTCTGTGGCAT (sugars k3 d1 m1 d8 k3, PS) | 61 | –
11 | GTGCACTCATTCTGTG (sugars k3 d10 k3, PS) | 6 | –
12 | GGAAATTGTTGCTGTT (sugars k3 d10 k3, PS) | 46 | –
13 | CTTGATCTCTTAGCTG (sugars k3 d9 k3 e1, PS) | 36 | –
14 | TATTAGTTGGCCTGCC (sugars k3 d10 k3, PS) | 14 | –
15 | GAATAGGAGAGTCTTT (sugars k3 d10 k3, PS) | 58 | –
16 | TCGAATCATTAAGCTT (sugars k3 d10 k3, PS) | 34 | –
17 | CTGCTGCTAGTGCCAA (sugars k3 d9 k3 e1, PS) | 66 | –
18 | AAGAAATTTGTGAACC (sugars k3 d10 k3, PS) | 21 | –
19 | TATAGTTATCTTCTCA (sugars k3 d9 k3 e1, PS) | 59 | –
20 | TCTTATGTAATAGCCA (sugars k3 d1 m1 d8 k3, PS) | 64 | –
21 | TAATCATGGGACAGGA (sugars k3 d10 k3, PS) | 15 | –
22 | GCGCTTATTAATATCC (sugars k3 d10 k3, PS) | 3 | –
23 | GTCCCAGCATTATTCA (sugars k3 d10 k3, PS) | 21 | –
24 | ACCTTCCCTGTGTAAA (sugars k3 d10 k3, PS) | 60 | –

Row | Sequence | target mRNA inhibition (1 µM) [%] | also measured
25 | AGGGAGACCATGCTGC (sugars k3 d10 k3, PS) | 79 | target mRNA inhibition (0.02 µM): 10%; target mRNA inhibition (0.078 µM): 28%; target mRNA inhibition (0.313 µM): 52%; target mRNA inhibition (1.25 µM): 59%; target mRNA inhibition (5 µM): 79%
26 | ACCTCAAATGTCTTGG (sugars k3 d10 k3, PS) | 17 | –
27 | CATATCTTACTCTGTG (sugars k3 d10 k3, PS) | 47 | –
28 | AGAGGCTAGGGAAATC (sugars k3 d10 k3, PS) | 63 | –
29 | TAGTCTTGATGTAGTG (sugars kkdddddddddkekek, PS) | 43 | –
30 | TAGTATAGTTATCTTC (sugars kkdddddddddkekek, PS) | 34 | –
31 | GAACTGTGTTGCTTGT (sugars k3 d10 k3, PS) | 77 | –
32 | GTGCCAAACCAATGTT (sugars k3 d10 k3, PS) | 43 | –
33 | CTGTATTAAGACAGTT (sugars k3 d10 k3, PS) | 41 | –
34 | CCTAGTTACAAACCAC (sugars k3 d10 k3, PS) | 51 | –
35 | CTTTTAACTACCCTCA (sugars k3 d10 k3, PS) | 16 | –
36 | ATACATTAGCAAGCTA (sugars k3 d10 k3, PS) | 69 | –
37 | TGCACCGTTTTGGGCT (sugars k3 d10 k3, PS) | 36 | –
38 | TGTCCAGGTTGAGATA (sugars k3 d10 k3, PS) | 48 | –
39 | CCTGUGTTAGCTTTAA (sugars k3 d1 m1 d8 k3, PS) | 28 | –
40 | CCTAUATACATCCAAG (sugars k3 d1 m1 d8 k3, PS) | 39 | –
41 | ACCAAACTTCCAGCAG (sugars kkdddddddddkekek, PS) | 32 | –
42 | AGTGCCAAACCAATGT (sugars k3 d9 k3 e1, PS) | 60 | –
43 | AGTTAGTATAGTTATC (sugars k3 d10 k3, PS) | 74 | target mRNA inhibition (0.02 µM): 35%; target mRNA inhibition (0.078 µM): 35%; target mRNA inhibition (0.313 µM): 60%; target mRNA inhibition (1.25 µM): 68%; target mRNA inhibition (5 µM): 84%
44 | TTCTTATGTAATAGCC (sugars k3 d10 k3, PS) | 71 | target mRNA inhibition (0.02 µM): 16%; target mRNA inhibition (0.078 µM): 39%; target mRNA inhibition (0.313 µM): 66%; target mRNA inhibition (1.25 µM): 86%; target mRNA inhibition (5 µM): 96%
45 | CCTAAAGGAGATCTGA (sugars k3 d10 k3, PS) | 48 | –
46 | GAGTTCTACACCACAC (sugars k3 d10 k3, PS) | 76 | target mRNA inhibition (0.02 µM): 0%; target mRNA inhibition (0.078 µM): 19%; target mRNA inhibition (0.313 µM): 32%; target mRNA inhibition (1.25 µM): 65%; target mRNA inhibition (5 µM): 87%
47 | GATTAGTCTTGATGTA (sugars k3 d9 k3 e1, PS) | 48 | –
48 | ATCAAAATGGTGGCGA (sugars k3 d10 k3, PS) | 20 | –

Row | Sequence | target mRNA inhibition (1 µM) [%] | also measured
49 | CCGTTTTGGGCTAATG (sugars k3 d10 k3, PS) | 58 | –
50 | AACCTATGTGTGCACC (sugars k3 d10 k3, PS) | 73 | –
51 | ATGGAAACATGCTTGG (sugars k3 d10 k3, PS) | 48 | –
52 | TTTAAAATAGAGTCGG (sugars k3 d1 m1 d8 k3, PS) | 77 | –
53 | ATCGGCTGGATATACT (sugars k3 d10 k3, PS) | 10 | –
54 | CACCGTTTTGGGCTAA (sugars k3 d10 k3, PS) | 85 | target mRNA inhibition (0.02 µM): 13%; target mRNA inhibition (0.078 µM): 23%; target mRNA inhibition (0.313 µM): 53%; target mRNA inhibition (1.25 µM): 83%; target mRNA inhibition (5 µM): 94%
55 | ATAGCAAGCCAACAGA (sugars kkdddddddddkekek, PS) | 23 | –
56 | AAATTTGCTGGAACTG (sugars k3 d10 k3, PS) | 15 | –
57 | CATGATTAAGCAGAAT (sugars k3 d10 k3, PS) | 42 | –
58 | GTTCAGTCCTTGTGTA (sugars k3 d10 k3, PS) | 38 | –
59 | AAGATACCCAGGTTGC (sugars k3 d9 k3 e1, PS) | 69 | –
60 | AATTTATTTGCTGGTC (sugars k3 d10 k3, PS) | 27 | –
61 | TTTAACTACCCTCACA (sugars k3 d10 k3, PS) | 0 | –
62 | ATTTAGTTGGTAGCTT (sugars k3 d10 k3, PS) | 35 | –
63 | ATATGGGATGAGGTAA (sugars k3 d10 k3, PS) | 37 | –
64 | CCATCATCGATGGAAG (sugars k3 d10 k3, PS) | 8 | –
65 | AAAATCGCTGCTTAGT (sugars k3 d10 k3, PS) | 35 | –
66 | CAATATGGGATGAGGT (sugars k3 d10 k3, PS) | 62 | –
67 | GATATTCTGTGGCATG (sugars kkdddddddddkekek, PS) | 52 | –
68 | TCAAAATGGTGGCGAG (sugars k3 d10 k3, PS) | 31 | –
69 | GAAGAGGCTAGGGAAA (sugars k3 d10 k3, PS) | 44 | –
70 | GCCACAGATTTTCTCC (sugars k3 d10 k3, PS) | 49 | –
